Measurements as given in the supplement of paper PMC11451515.

What was measured:
NOMO1 [1] = test: cell viability relative to DMSO control; higher = less cytotoxic; details: RPMI 5 mM glucose + 10% FBS, 48 h
Method in brief: (§1)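 NOMO1 or SEM cells were plated at 500 cells/well and P12-Ichikawa cells at 1000 cells/well in 1536-well plates (5 μl), after each leukemia line had been adapted for at least four passages in each medium. Pin dosing delivered library compounds in DMSO at 11 threefold concentrations, 47 μM to 0.79 nM. CellTiter-Glo One luminescence was read after 48 h at 37°C. Viability is reported as a per-plate percentage of DMSO wells, with cell-free wells as background.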

P12-Ichikawa [2] = test: as above; details: 48 h
Method in brief: as §1

SEM cells [3] = test: as above; details: 48 h
Method in brief: as §1

NOMO1 [4] = test: AUC of viability dose-response curve (% viability x log10 dose units); higher = less sensitive; details: 48 h
Method in brief: (§2)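 Medium-adapted leukemia cells in 1536-well plates, at 500 or 1000 cells/well, were incubated for 48 h at 37°C with library compounds in DMSO at 11 threefold doses from 47 μM to 0.79 nM. CellTiter-Glo One luminescence normalised per plate to DMSO and cell-free wells was fitted with a four-parameter log-logistic model over log10 doses. Area under the curve was integrated from this fit by trapezoidal rule, with curves beyond full viability scaled and failed quality-control curves removed.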

P12-Ichikawa [5] = test: as above; details: 48 h
Method in brief: as §2

SEM cells [6] = test: as above; details: 48 h
Method in brief: as §2

CN(C)CC/C=C1/c2ccccc2COc2ccc(CC(=O)O)cc21
Details | AUC of viability dose-response curve | cell viability [%]
NOMO1 [1], 0.000781 µM | – | 112
NOMO1 [1], 0.00234 µM | – | 115
NOMO1 [1], 0.00702 µM | – | 120
NOMO1 [1], 0.0211 µM | – | 128
NOMO1 [1], 0.0632 µM | – | 153
NOMO1 [1], 0.19 µM | – | 131
NOMO1 [1], 0.569 µM | – | 148
NOMO1 [1], 1.71 µM | – | 166
NOMO1 [1], 5.12 µM | – | 153
NOMO1 [1], 15.4 µM | – | 149
NOMO1 [1], 46.1 µM | – | 147
NOMO1 [4], HPLM + 10% dialyzed FBS | 466 | –
NOMO1 [4], RPMI 5 mM glucose + 10% FBS | 437 | –
NOMO1 [4], RPMI 5 mM glucose + 10% dialyzed FBS | 453 | –
P12-Ichikawa [5], HPLM + 10% dialyzed FBS | 462 | –
P12-Ichikawa [5], RPMI 5 mM glucose + 10% FBS | 467 | –
P12-Ichikawa [5], RPMI 5 mM glucose + 10% dialyzed FBS | 461 | –
SEM cells [6], HPLM + 10% dialyzed FBS | 448 | –
SEM cells [6], RPMI 5 mM glucose + 10% FBS | 454 | –
SEM cells [6], RPMI 5 mM glucose + 10% dialyzed FBS | 449 | –

cell viability [%]
Details | HPLM + 10% dialyzed FBS | RPMI 5 mM glucose + 10% FBS | RPMI 5 mM glucose + 10% dialyzed FBS
P12-Ichikawa [2], 0.000781 µM | 118 | – | 122
P12-Ichikawa [2], 0.00234 µM | 112 | – | 114
P12-Ichikawa [2], 0.00702 µM | 116 | – | 122
P12-Ichikawa [2], 0.0211 µM | 120 | – | 141
P12-Ichikawa [2], 0.0632 µM | 125 | – | 140
P12-Ichikawa [2], 0.19 µM | 125 | – | 136
P12-Ichikawa [2], 0.569 µM | 122 | – | 146
P12-Ichikawa [2], 1.71 µM | 126 | – | 135
P12-Ichikawa [2], 5.12 µM | 129 | – | 134
P12-Ichikawa [2], 15.4 µM | 125 | – | 136
P12-Ichikawa [2], 46.1 µM | 131 | – | 138
SEM cells [3], 0.000781 µM | 85.4 | 123 | –
SEM cells [3], 0.00234 µM | 81.8 | 106 | –
SEM cells [3], 0.00702 µM | 108 | 124 | –
SEM cells [3], 0.0211 µM | 120 | 127 | –
SEM cells [3], 0.0632 µM | 113 | 136 | –
SEM cells [3], 0.19 µM | 130 | 132 | –
SEM cells [3], 0.569 µM | 132 | 143 | –
SEM cells [3], 1.71 µM | 124 | 144 | –
SEM cells [3], 5.12 µM | 101 | 121 | –
SEM cells [3], 15.4 µM | 141 | 148 | –
SEM cells [3], 46.1 µM | 126 | 142 | –
